{"source": "BindingDB's records for doi:10.1007/bf00176615", "about": "(Sandoz Pharma, 1992)", "key": {"[1]": {"molecular_target": "Mu-type opioid receptor (Rattus norvegicus, UniProt P33535)", "sequence (P33535 whole entry)": "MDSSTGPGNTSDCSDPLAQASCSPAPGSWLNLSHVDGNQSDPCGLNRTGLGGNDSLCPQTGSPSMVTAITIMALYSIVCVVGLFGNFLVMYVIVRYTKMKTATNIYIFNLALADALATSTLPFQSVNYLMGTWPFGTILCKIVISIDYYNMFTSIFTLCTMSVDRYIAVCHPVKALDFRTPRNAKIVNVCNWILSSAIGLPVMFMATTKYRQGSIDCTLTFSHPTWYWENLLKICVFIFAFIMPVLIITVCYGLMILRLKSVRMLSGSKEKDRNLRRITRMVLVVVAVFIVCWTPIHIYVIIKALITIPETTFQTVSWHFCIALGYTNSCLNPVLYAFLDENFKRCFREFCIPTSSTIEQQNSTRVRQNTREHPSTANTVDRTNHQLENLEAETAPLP"}, "[2]": {"molecular_target": "T1, Alpha-2A adrenergic receptor (Bos taurus, UniProt Q28838)", "T1 sequence (Q28838 whole entry)": "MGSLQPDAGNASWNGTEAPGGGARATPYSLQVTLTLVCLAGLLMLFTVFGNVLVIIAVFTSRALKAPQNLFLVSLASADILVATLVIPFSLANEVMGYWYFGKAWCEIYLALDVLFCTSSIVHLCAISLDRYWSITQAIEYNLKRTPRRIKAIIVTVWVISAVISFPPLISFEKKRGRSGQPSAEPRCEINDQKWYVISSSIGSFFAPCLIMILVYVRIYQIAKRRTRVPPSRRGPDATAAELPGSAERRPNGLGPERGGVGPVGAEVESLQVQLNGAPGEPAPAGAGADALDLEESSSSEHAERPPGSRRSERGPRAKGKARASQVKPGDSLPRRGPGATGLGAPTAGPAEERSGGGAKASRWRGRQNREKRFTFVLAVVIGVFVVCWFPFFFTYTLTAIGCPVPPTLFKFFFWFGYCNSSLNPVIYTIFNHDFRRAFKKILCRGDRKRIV"}, "[3]": {"molecular_target": "T2, 5-hydroxytryptamine receptor 2C (Sus scrofa, UniProt G7ZKZ7)", "T2 sequence (G7ZKZ7 whole entry)": "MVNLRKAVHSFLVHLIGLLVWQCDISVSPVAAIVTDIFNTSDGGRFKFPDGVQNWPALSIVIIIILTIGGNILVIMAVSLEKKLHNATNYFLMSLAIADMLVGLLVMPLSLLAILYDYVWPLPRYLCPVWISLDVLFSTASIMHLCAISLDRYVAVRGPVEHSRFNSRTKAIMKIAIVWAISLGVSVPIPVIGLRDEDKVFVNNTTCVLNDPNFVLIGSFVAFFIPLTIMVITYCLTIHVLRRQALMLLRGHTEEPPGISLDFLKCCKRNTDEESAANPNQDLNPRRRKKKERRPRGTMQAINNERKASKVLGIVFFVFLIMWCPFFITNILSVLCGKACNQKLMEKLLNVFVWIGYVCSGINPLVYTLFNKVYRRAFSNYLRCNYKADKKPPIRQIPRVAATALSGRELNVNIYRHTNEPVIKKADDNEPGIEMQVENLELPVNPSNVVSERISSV"}, "[4]": {"molecular_target": "5-hydroxytryptamine 1D receptor (Bos taurus, UniProt Q8MI13)", "sequence (Q8MI13 whole entry)": "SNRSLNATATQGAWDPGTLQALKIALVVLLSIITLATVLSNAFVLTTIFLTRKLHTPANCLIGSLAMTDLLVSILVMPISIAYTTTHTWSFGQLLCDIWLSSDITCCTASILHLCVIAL"}, "[5]": {"molecular_target": "5-hydroxytryptamine receptor 2A (Rattus norvegicus, UniProt P14842)", "sequence (P14842 whole entry)": "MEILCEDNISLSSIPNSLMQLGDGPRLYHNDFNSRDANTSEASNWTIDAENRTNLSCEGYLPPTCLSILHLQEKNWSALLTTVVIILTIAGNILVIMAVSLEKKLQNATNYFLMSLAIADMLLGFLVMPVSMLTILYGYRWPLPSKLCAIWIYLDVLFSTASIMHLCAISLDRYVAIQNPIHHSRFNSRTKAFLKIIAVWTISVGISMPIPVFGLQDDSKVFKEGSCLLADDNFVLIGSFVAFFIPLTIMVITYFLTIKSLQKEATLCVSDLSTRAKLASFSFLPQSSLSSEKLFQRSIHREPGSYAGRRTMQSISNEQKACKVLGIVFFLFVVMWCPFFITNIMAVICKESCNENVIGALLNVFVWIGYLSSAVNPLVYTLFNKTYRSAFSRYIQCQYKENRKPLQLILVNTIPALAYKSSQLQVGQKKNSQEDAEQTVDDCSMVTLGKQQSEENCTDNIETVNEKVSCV"}, "[6]": {"molecular_target": "T3, Alpha-1A adrenergic receptor (Bos taurus, UniProt P18130)", "T3 sequence (P18130 whole entry)": "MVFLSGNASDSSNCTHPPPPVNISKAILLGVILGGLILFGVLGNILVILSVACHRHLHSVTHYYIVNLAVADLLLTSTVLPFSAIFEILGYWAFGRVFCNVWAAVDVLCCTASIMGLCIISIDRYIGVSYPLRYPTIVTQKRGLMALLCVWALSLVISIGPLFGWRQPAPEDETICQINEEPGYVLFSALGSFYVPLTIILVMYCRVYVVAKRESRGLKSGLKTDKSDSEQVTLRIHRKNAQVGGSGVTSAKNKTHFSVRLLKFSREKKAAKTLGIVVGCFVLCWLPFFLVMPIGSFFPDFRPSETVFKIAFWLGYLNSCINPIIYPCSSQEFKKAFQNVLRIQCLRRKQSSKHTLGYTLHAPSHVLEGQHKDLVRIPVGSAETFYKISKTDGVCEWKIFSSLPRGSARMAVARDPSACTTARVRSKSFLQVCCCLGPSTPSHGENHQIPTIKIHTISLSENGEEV"}}}
{"smiles": "CCN(CC)CCOC(=O)c1cc(Cl)c(N)cc1OC", "note": "[SDZ-205557]", "values": [{"measurement": "Ki", "setting": "[1]", "result": "> 10", "unit": "µM"}, {"measurement": "Ki", "setting": "[2]", "result": "> 10", "unit": "µM"}, {"measurement": "Ki", "setting": "[3]", "result": 3.98, "unit": "µM"}, {"measurement": "Ki", "setting": "[4]", "result": 2510, "unit": "nM"}, {"measurement": "Ki", "setting": "[5]", "result": "> 10", "unit": "µM"}, {"measurement": "Ki", "setting": "[6]", "result": 6.31, "unit": "µM"}]}
